Data reported in patent US9073903B2, “Imidazole-2,4-dione inhibitors of casein kinase 1” (Jasco Pharmaceuticals, LLC, priority 2010, dated 2015).
Read-outs that look alike come from different tables or passages of the source.

What was measured:
Type in all cases: cell-based
[1] = test system: Ovcar-3 cells; assay: Inhibition of Ovcar 3 cells (MTS cell proliferation); conditions: for OD value 1 / OD value 2: 490 nm; for OD value 1 / OD value 2 / inhibition at 0.4 µM / inhibition at 0.8 µM / inhibition at 1.6 µM / inhibition at 3.2 µM / inhibition at 6.25 µM / inhibition at 12.5 µM / inhibition at 25 µM / inhibition at 50 µM / inhibition at 100 µM: 72 h; for inhibition at 0.4 µM / inhibition at 0.8 µM / inhibition at 1.6 µM / inhibition at 3.2 µM / inhibition at 6.25 µM / inhibition at 12.5 µM / inhibition at 25 µM / inhibition at 50 µM / inhibition at 100 µM / IC50: Homo sapiens, OVCAR-3
Procedure: Inhibition of Ovcar 3 Cells Cells: Ovcar-3 cells, ATCC Passage 4, Mycoplasma free. Medium: RPMI-1640 Medium (GIBCO Cat #22400121) supplemented with 10% fetal bovine serum (Hyclone Cat #SH30396.03). Seeding: 3,000 cells/well (100 uL) were seeded into 96-wells plate, incubated overnight at 37° C. in a humidified, 5% CO2 atmosphere. Treatment: Test compounds and Gemcitabine were prepared in a serial dilution (1:2) by culture medium. Fifty microliters (50 uL) of serially diluted solutions were added into each well. The final concentrations of the positive control and test compounds were shown in the graphs. The cells were incubated for 72 hours after addition of the test compounds. MTS: 15 uL of MTS solution (Promega Cat #G5430) was added into each well and incubated with cells for 4 hours at 37° C. in a humidified, 5% CO2 atmosphere. Measurement: Absorbance at 490 nm was measured using MD Spectramax Plus384 spectrophotometer. The regression curves were calculated by the GraphPad Prism 5 using “log(inhibitor) vs response—variable slope”.

[2] = test system: Jurkat; assay: Cell proliferation study Jurkat
[3] = test system: HCT116 cells; assay: Inhibition of HCT116 cells (MTS cell proliferation); conditions: for OD value 1 / OD value 2: 490 nm; for OD value 1 / OD value 2 / inhibition at 0.4 µM / inhibition at 0.8 µM / inhibition at 1.6 µM / inhibition at 3.2 µM / inhibition at 6.25 µM / inhibition at 12.5 µM / inhibition at 25 µM / inhibition at 50 µM / inhibition at 100 µM: 72 h; for inhibition at 0.4 µM / inhibition at 0.8 µM / inhibition at 1.6 µM / inhibition at 3.2 µM / inhibition at 6.25 µM / inhibition at 12.5 µM / inhibition at 25 µM / inhibition at 50 µM / inhibition at 100 µM / IC50: Homo sapiens, HCT-116
Procedure: Inhibition of HCT116 Cells Cells: HCT116 cells, ATCC Passage unknown, Mycoplasma free. Medium: DMEM Medium (GIBCO Cat #11995073) supplemented with 10% fetal bovine serum (Hyclone Cat #SH30396.03). Seeding: 750 cells/well (100 μL) into 96-wells plate, incubated overnight at 37° C. in a humidified, 5% CO2 atmosphere. Treatment: Test compounds and Gemcitabine were prepared in a serial dilution (1:2) by culture medium. Fifty microliters (50 uL) of serially diluted solutions were added into each well. The final concentrations of the positive control and test compounds were shown in the graphs. The cells were incubated for 72 hours after addition of the test compounds. MTS: 15 uL of MTS solution (Promega Cat #G5430) was added into each well and incubated with cells for 4 hours at 37° C. in a humidified, 5% CO2 atmosphere. Measurement: Absorbance at 490 nm was measured using MD Spectramax Plus384 spectrophotometer. The regression curves were calculated by the GraphPad Prism 5 using “log(inhibitor) vs response—variable slope”. Calculation: % of inhibition=(ODzero ctrl−OD compound)/ODzero ctrl*100.

With Nc1ccn([C@@H]2O[C@H](CO)[C@@H](O)C2(F)F)c(=O)n1 [Gemcitabine] the “OD value 1” value ([1]; 0.400 μM, replicate 1) was 0.591, the “OD value 2” value ([1]; 0.400 μM, replicate 2) was 0.575 and the “OD value 1” value ([1]; 0.800 μM, replicate 1) was 0.490. For the same compound, the “OD value 2” value ([1]; 0.800 μM, replicate 2) was 0.460, the “OD value 1” value ([1]; 1.600 μM, replicate 1) was 0.440 and the “OD value 2” value ([1]; 1.600 μM, replicate 2) was 0.453. The “OD value 1” value ([1]; 3.200 μM, replicate 1) was 0.411, the “OD value 2” value ([1]; 3.200 μM, replicate 2) was 0.432 and the “OD value 1” value ([1]; 6.250 μM, replicate 1) was 0.363. For the same compound, the “OD value 2” value ([1]; 6.250 μM, replicate 2) was 0.388, the “OD value 1” value ([1]; 12.500 μM, replicate 1) was 0.257 and the “OD value 2” value ([1]; 12.500 μM, replicate 2) was 0.234. For the same compound, the “OD value 1” value ([1]; 25.000 μM, replicate 1) was 0.040, the “OD value 2” value ([1]; 25.000 μM, replicate 2) was 0.009 and the “OD value 1” value ([1]; 50.000 μM, replicate 1) was 0.020. For the same compound, the “OD value 2” value ([1]; 50.000 μM, replicate 2) was 0.010, the “OD value 1” value ([1]; 100.000 μM, replicate 1) was 0.012 and the “OD value 2” value ([1]; 100.000 μM, replicate 2) was 0.011. The inhibition at 0.4 µM ([1]; 0.400 μM, replicate 1, read-out: % of inhibition 1) was 1.5%, the inhibition at 0.4 µM ([1]; 0.400 μM, replicate 2, read-out: % of inhibition 2) was -4.93% and the inhibition at 0.8 µM ([1]; 0.800 μM, replicate 1, read-out: % of inhibition 1) was 18.3%. It also gave an inhibition at 0.8 µM ([1]; 0.800 μM, replicate 2, read-out: % of inhibition 2) of 16.1%, an inhibition at 1.6 µM ([1]; 1.600 μM, replicate 1, read-out: % of inhibition 1) of 26.6% and an inhibition at 1.6 µM ([1]; 1.600 μM, replicate 2, read-out: % of inhibition 2) of 17.4%. The inhibition at 3.2 µM ([1]; 3.200 μM, replicate 1, read-out: % of inhibition 1) was 31.5%, the inhibition at 3.2 µM ([1]; 3.200 μM, replicate 2, read-out: % of inhibition 2) was 21.2% and the inhibition at 6.25 µM ([1]; 6.250 μM, replicate 1, read-out: % of inhibition 1) was 39.5%. It also gave an inhibition at 6.25 µM ([1]; 6.250 μM, replicate 2, read-out: % of inhibition 2) of 29.2%, an inhibition at 12.5 µM ([1]; 12.500 μM, replicate 1, read-out: % of inhibition 1) of 57.2% and an inhibition at 12.5 µM ([1]; 12.500 μM, replicate 2, read-out: % of inhibition 2) of 57.3%. The inhibition at 25 µM ([1]; 25.000 μM, replicate 1, read-out: % of inhibition 1) was 93.4%, the inhibition at 25 µM ([1]; 25.000 μM, replicate 2, read-out: % of inhibition 2) was 98.4% and the inhibition at 50 µM ([1]; 50.000 μM, replicate 1, read-out: % of inhibition 1) was 96.7%. It also gave an inhibition at 50 µM ([1]; 50.000 μM, replicate 2, read-out: % of inhibition 2) of 98.1%, an inhibition at 100 µM ([1]; 100.000 μM, replicate 1, read-out: % of inhibition 1) of 98% and an inhibition at 100 µM ([1]; 100.000 μM, replicate 2, read-out: % of inhibition 2) of 98%. It also gave an IC50 ([1]; Table 18, read-out: OVCAR-3* 50% inhibition concentration) of 11.2 µM, an IC50 ([1]; Table 26, Ovcar3, 72 hours, read-out: 50% viability conc.) of 11.2 µM and an IC50 ([1]; Table 26, Ovcar3, 72 hours, read-out: IC50) of 9.87 µM. For the same compound, the Maximal inhibition % ([1]; Table 26, Ovcar3, 72 hours) was 98%, the “Jurkat‡ % at 10 μM” value [2] was 3.2% and the “OD value 1” value ([3]; 0.400 uM, replicate 1) was 0.799. For the same compound, the “OD value 2” value ([3]; 0.400 uM, replicate 2) was 0.766, the “OD value 1” value ([3]; 0.800 uM, replicate 1) was 0.619 and the “OD value 2” value ([3]; 0.800 uM, replicate 2) was 0.723. The “OD value 1” value ([3]; 1.600 uM, replicate 1) was 0.452, the “OD value 2” value ([3]; 1.600 uM, replicate 2) was 0.535 and the “OD value 1” value ([3]; 3.200 uM, replicate 1) was 0.083. The “OD value 2” value ([3]; 3.200 uM, replicate 2) was 0.083, the “OD value 1” value ([3]; 6.250 uM, replicate 1) was 0.076 and the “OD value 2” value ([3]; 6.250 uM, replicate 2) was 0.065. The “OD value 1” value ([3]; 12.500 uM, replicate 1) was 0.065, the “OD value 2” value ([3]; 12.500 uM, replicate 2) was 0.063 and the “OD value 1” value ([3]; 25.000 uM, replicate 1) was 0.075. For the same compound, the “OD value 2” value ([3]; 25.000 uM, replicate 2) was 0.061, the “OD value 1” value ([3]; 50.000 uM, replicate 1) was 0.036 and the “OD value 2” value ([3]; 50.000 uM, replicate 2) was 0.046. The “OD value 1” value ([3]; 100.000 uM, replicate 1) was 0.037, the “OD value 2” value ([3]; 100.000 uM, replicate 2) was 0.037 and the inhibition at 0.4 µM ([3]; 0.400 uM, replicate 1, read-out: % of inhibition 1) was 18.8%. The inhibition at 0.4 µM ([3]; 0.400 uM, replicate 2, read-out: % of inhibition 2) was 20.9%, the inhibition at 0.8 µM ([3]; 0.800 uM, replicate 1, read-out: % of inhibition 1) was 37.2% and the inhibition at 0.8 µM ([3]; 0.800 uM, replicate 2, read-out: % of inhibition 2) was 25.3%. It also gave an inhibition at 1.6 µM ([3]; 1.600 uM, replicate 1, read-out: % of inhibition 1) of 54.1%, an inhibition at 1.6 µM ([3]; 1.600 uM, replicate 2, read-out: % of inhibition 2) of 44.7% and an inhibition at 3.2 µM ([3]; 3.200 uM, replicate 1, read-out: % of inhibition 1) of 91.6%. The inhibition at 3.2 µM ([3]; 3.200 uM, replicate 2, read-out: % of inhibition 2) was 91.4%, the inhibition at 6.25 µM ([3]; 6.250 uM, replicate 1, read-out: % of inhibition 1) was 92.3% and the inhibition at 6.25 µM ([3]; 6.250 uM, replicate 2, read-out: % of inhibition 2) was 93.3%. It also gave an inhibition at 12.5 µM ([3]; 12.500 uM, replicate 1, read-out: % of inhibition 1) of 93.4%, an inhibition at 12.5 µM ([3]; 12.500 uM, replicate 2, read-out: % of inhibition 2) of 93.5% and an inhibition at 25 µM ([3]; 25.000 uM, replicate 1, read-out: % of inhibition 1) of 92.4%. The inhibition at 25 µM ([3]; 25.000 uM, replicate 2, read-out: % of inhibition 2) was 93.7%, the inhibition at 50 µM ([3]; 50.000 uM, replicate 1, read-out: % of inhibition 1) was 96.4% and the inhibition at 50 µM ([3]; 50.000 uM, replicate 2, read-out: % of inhibition 2) was 95.2%. For the same compound, the inhibition at 100 µM ([3]; 100.000 uM, replicate 1, read-out: % of inhibition 1) was 96.3%, the inhibition at 100 µM ([3]; 100.000 uM, replicate 2, read-out: % of inhibition 2) was 96.2% and the IC50 ([3]; Table 17, read-out: HCT-116* 50% inhibition concentration) was 1.29 µM. The IC50 ([3]; Table 26, HCT116, 72 hours, read-out: 50% viability conc.) was 1.29 µM, the IC50 ([3]; Table 26, HCT116, 72 hours, read-out: IC50) was 1.42 µM and the Maximal inhibition % ([3]; Table 26, HCT116, 72 hours) was 96.25%.
